Laboratory results reported in patent US20250152580A1, “METHODS FOR TREATING IMMUNE DISEASES” (Ascentage Pharma (Suzhou) co., Ltd., priority 2022, published 2025).
Entries after “also recorded” stand apart in the source; their conditions may differ.

Columns and labels:
[1] = system: DSS induced IBD (colitis) model; assay: DSS induced inflammatory bowel disease (IBD) model in C57BL/6 mice; assay type: in vivo; details: for pathological score (colon): day 8, vehicle 10.10±0.17
Description: Female C57BL/6 mice (8 weeks old) were obtained from Beijing Vital River Laboratory Animal Co. Ltd. Animals were housed and handled in a temperature-controlled environment with a 12-h light/12-h dark cycle. A total of 50 mice were assigned to 5 groups by randomization based on body weight.
On Day 0, colitis was induced by administration of 3% DSS (dextran sodium sulfate, molecular weight 36,000-50,000) in drinking water ad libitum for 8 days. 8-week-old mice were divided into 5 groups: Group 2, DSS treatment group (vehicle, po, qd, from day 0 to day 7); Group 3, DSS with 30 mg/kg Cpd. 4 (po, qd, from day 0 to day 7); Group 4, DSS with 100 mg/kg Cpd. 4 (po, qd, from day 0 to day 7); and Group 5, DSS with 50 mg/kg Cyclosporine (po, qd, from day 0 to day 7). For the Group 1 (G1) Sham group, the mice were provided drinking water without DSS.
Clinical signs of IBD were assessed every day based on the scores of disease activity index (DAI) which was evaluated from three parameters using a scoring system from 0 to 4: stool consistency (0, normal stool; 1, soft but still formed stool; 2, soft and not formed stool; 3, very soft and wet stool; 4, watery diarrhea), bleeding score (0, negative hemoccult; 1, weak positive hemoccult; 2, positive hemoccult; 3, blood trace in stool visible; 4, gross rectal bleeding) and body weight loss (0, no body weight loos; 1, 1-5% body weight loss; 2, 6-10% body weight loss; 3, 11-20% body weight loss; 4, >20% body weight loss).
At the end of induction with DSS, the animals were euthanized, dissected and the entire colon was quickly removed and gently cleared of feces.
The entire colon was weighed, and the total length was measured. Colon weight gain and shortening is an indirect marker of inflammation. As expected, DSS increased colon weight to 243.8±10.73 mg. Cpd. […] 4 treatment (FIG. 11).
The colon of a mouse was Swiss-rolled and fixed with neutralized PFA followed by H&E staining. After that, the pathologists from WuXi clinical pathological analysis platform, who were blinded to animal ID, reviewed the H&E staining and scored. The pathological scoring standards were as follows: crypt architecture (normal, 0; severe crypt distortion with loss of entire crypts, 3), degree of inflammatory cell infiltration (normal, 0; dense inflammatory infiltrate, 3), muscle thickening (normal, 0; marked muscle thickening present, 3), goblet cell depletion (absent, 0; present, 1) and crypt abscess (absent, 0; present, 1).
At the end of the study (day 8), all the animals were sacrificed by CO2, and the colon tissues were collected and fixed in 10% formalin for pathological analysis (H&E and LFB staining). The histopathological score was evaluated microscopically in a blinded manner.

[2] = system: IL-23 induced psoriasis model; assay: IL-23 induced psoriasis model in C57BL/6 mice; assay type: in vivo; details: Cpd. 4 30 mg/kg po qd day 1-14, compared with Vehicle (0.44 mm day 14)
Description: IL-23 stimulates and promotes differentiation of Th17 cells. IL-23 is a heterodimeric cytokine with two subunits. It drives the Th17 response by its binding and signaling through its receptor subunits. When the IL-23R is activated, it promotes the development of Th17 cells and the resulting production of cytokines such as IL-17A, IL-17F, and IL-22, all which are involved in mediating psoriasiform changes.
C57BL/6 mice (7-8 weeks old) were obtained from Vital River Laboratory Animal Technology Co., Ltd. Animals were housed and handled in a temperature-controlled environment with a 12-h light/12-h dark cycle. A total of 40 mice were assigned to 4 groups by randomization based on body weight.
The first day of IL-23 injection is considered as Day 1. Intradermal injection of 20 μL PBS containing 500 ng recombinant mouse IL-23 into the right ear of anesthetized mice using a 30-gauge needle every other day for 14 days (Day 1, Day 3, Day 5, Day 7, Day 9, Day 11, Day 13), 7 times in total. The G1 normal control group intradermal injected with 20 μL PBS.
Mice in Group 1 and Group 2 were treated with vehicle for 14 days (po, qd, from day 1 to day 14). Mice in Group 3 were treated with 30 mg/kg Cpd. 4 for 14 days (po, qd, from day 1 to day 14). […]
Ear thickness of mice was measured in Day 1, 3, 5, 7, 9, 11, 13 and Day 14. […]

[3] = Cpd. 4 30 and 100 mg/kg po qd, compared with Vehicle

Compound: O=C(NS(=O)(=O)c1ccc(NC[C@H]2COCCO2)c([N+](=O)[O-])c1)c1ccc(N2CCN(CC3=C(c4ccc(Cl)cc4)CC4(CCC4)CC3)CC2)cc1Oc1cnc2[nH]ccc2c1 [Cpd. 4, (S)-N-((4-(((1,4-dioxan-2-yl)methyl)amino)-3-nitrophenyl)sulfonyl)-2-((1H-pyrrolo[2,3-b]pyridin-5-yl)oxy)-4-(4-((6-(4-chlorophenyl)spiro[3.5]non-6-en-7-yl)methyl)piperazin-1-yl)benzamide]
- colon length ([1]; 30 mg/kg po qd day 0 to day 7, vehicle 4.81±0.08 cm): 5.25±0.11 cm
- colon weight ([1]; 30 mg/kg po qd day 0 to day 7, vehicle 243.8±10.73 mg): 188.4 ± 10.48 mg
- pathological score (colon) ([1]; 30 mg/kg po qd): 6.70±0.25
- pathological score (colon) ([1]; 100 mg/kg po qd): 3.70±0.25
- disease activity index (DAI), clinical score of IBD ([1]; Cpd. 4 30 and 100 mg/kg po qd day 0 to day 7, cyclosporine 50 mg/kg po qd, compared with Vehicle): significantly reducing the clinical score; also recorded: significantly reduced
- colon length (in words) [1, 3]: significantly increased
- colon weight (in words) [1, 3]: significantly decreased
- pathological score (in words) ([1]; Cpd. 4, compared with Vehicle): significantly decreased
- ear thickness [2]: significantly reducing the ear thickness; also recorded: significantly reduced
